Assay results taken from patent US20150322033A1, “ANTIBACTERIAL AGENT” (priority 2012, published 2015).
Converted amounts (≈) assume the structure as drawn. Like-named read-outs stand apart in the source and are kept apart here.

Legend:
[1] = system: S. aureus FDA209P (ATCC 6538P); assay: microbe, parasite or virus in culture; type: cell-based, Staphylococcus aureus; details: for MIC: Staphylococcus aureus
Experimental: (§1) S. aureus Mu50 (refer to Hiramatsu, K., Hanaki H., et al., J. Antimicrob. Chemother., 1997, 40(1), 135-6) or S. aureus FDA209P (ATCC 6538P) was cultured overnight at 37° C. in 4 mL of TBS (Tryptical Soy Broth, produced by Becton Dickinson) with shaking. After completion of the culture, the cells were suspended in fresh TBS to prepare a cell suspension showing an absorbance of 0.3 at 578 nm. Then, the cell suspension was diluted 500 times with CAMHB mentioned above.
(§2) CAMHB containing each test compound at each of the aforementioned concentrations was added to each well of a 96-well plate in a volume of 50 μL/well, the aforementioned cell suspension diluted 500 time was added to the well in a volume of 50 μL/well, and stationary culture was carried out overnight at 37° C.
(§3) MIC values (mg/L) of the flavones and quinolones against the strains were measured in the same manner as that of the measurement of MIC of Example 1, except that CAMHB containing each of the aforementioned flavones and quinolones prepared in Example 2 was used instead of CAMHB containing each of the test compounds.
(§4) MIC values of the flavones and quinolone for the strains were measured in the same manners as those of Example 1, except that S. aureus Mu50 NR-1 was also used as Staphylococcus aureus in addition to S. aureus FDA209P and S. aureus Mu50, cell suspensions of the strains were prepared.
(§5) In the same manner as that of Example 1, MIC values of M-246, M-21, J-Q21, and J-Q12.1 for Staphylococcus aureus were measured. M-246 and M-21 were obtained as commercial products, and as J-Q21 and J-Q12.1, those synthesized in Examples 6 and 7 were used.

S. aureus Mu50 = assay: microbe, parasite or virus in culture; type: cell-based, Staphylococcus aureus; details: for MIC ratio: (MIC value for S. aureus FDA209P)/(MIC value for S. aureus Mu50); for MIC: Staphylococcus aureus; for MIC (mg/L) Mu50: Example 1, Tables 1 to 10
Experimental: as §1, §2, §3, §4, §5

S. aureus Mu50 NR1-1 = assay: MIC by broth microdilution, S. aureus Mu50 NR1-1; type: cell-based; details: Staphylococcus aureus, MU50NR11; Example 3, Table 13; read-out: MIC (mg/L) Mu50 NR1-1 (S80F, w)
Experimental: as §4
S. aureus Mu50 NR1-1 mentioned in Table 13 is a strain selected stepwise from the clinically isolated S. aureus Mu50 strain with deoxynybomycin, and it has a topoisomerase IV encoded by parC in which a […] (see, Hiramatsu K. et al., J. Antimicrob. Agents, 2012, June; 39 (6), 478-85).
In Table 13, the descriptions in the parentheses after the strains indicate the mutated amino acid residue and its position, as represented by (the mutation of topoisomerase IV resulting from the mutation of parCand the mutation of DNA gyrase resulting from the mutation of gyrA). The character “w” means wild-type, representing without mutation.

[2] = Example 1, Tables 1 to 10, read-out: MIC (mg/L) FDA209P
[3] = Example 2, Table 12, read-out: MIC (mg/L) S. aureus FDA209P
[4] = Example 3, Table 13, read-out: MIC (mg/L) FDA209P (w, w)
[5] = MU50, read-out: MIC (mg/L) S. aureus Mu50, Example 2, Table 12
[6] = MU50, read-out: MIC (mg/L) Mu50, Example 1, Tables 1 to 10
[7] = MU50, read-out: MIC (mg/L) Mu50
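Wherever MIC ratio is given: ratio is FDA209P MIC divided by Mu50 MIC.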

## O=c1cc(-c2ccc(O)c(O)c2)oc2cc(O)cc(O)c12 [No. 6, 3′,4′,5,7-Tetrahydroxyflavone]
[1]; [2]
  MIC: 32 mg/L (≈ 112 µM)
[1]; [3]
  MIC: 32 mg/L (≈ 112 µM)
[1]; [4]
  MIC: 32 mg/L (≈ 112 µM)
S. aureus Mu50
  MIC ratio: 4
S. aureus Mu50; [5]
  MIC: 8 mg/L (≈ 27.9 µM)
S. aureus Mu50 NR1-1
  MIC: 32 mg/L (≈ 112 µM)

## COc1cc(-c2oc3c(OC)c(O)cc(O)c3c(=O)c2O)ccc1O [No. 38, 3,5,7-trihydroxy-2-(4-hydroxy-3-methoxyphenyl)-8-methoxychromen-4-one]
[1]; [2]
  MIC: 128 mg/L (≈ 370 µM)
[1]; [3]
  MIC: 128 mg/L (≈ 370 µM)
[1]; [4]
  MIC: 128 mg/L (≈ 370 µM)
S. aureus Mu50
  MIC ratio: 4
S. aureus Mu50; [6]
  MIC: 32 mg/L (≈ 92.4 µM)
S. aureus Mu50; [5]
  MIC: 32 mg/L (≈ 92.4 µM)
S. aureus Mu50 NR1-1
  MIC: 64 mg/L (≈ 185 µM)

## O.O=c1c(O)c(-c2ccc(O)c(O)c2)oc2cc(O)cc(O)c12 [No. 1, 3,3′,4′,5,7-Pentahydroxyflavone Hydrate]
[1]; [2]
  MIC: 64 mg/L
[1]; [3]
  MIC: 64 mg/L
[1]; [4]
  MIC: 64 mg/L
S. aureus Mu50
  MIC ratio: 2
S. aureus Mu50; [6]
  MIC: ≤ 32 mg/L
S. aureus Mu50; [5]
  MIC: 32 mg/L
S. aureus Mu50 NR1-1
  MIC: 64 mg/L

## COc1ccc2c(=O)cc(-c3ccc(O)cc3)oc2c1 [No. 69, 2-(4-hydroxyphenyl)-7-methoxychromen-4-one]
[1]; [2]
  MIC: > 128 mg/L
[1]; [3]
  MIC: 128 mg/L (≈ 477 µM)
[1]; [4]
  MIC: > 128 mg/L
S. aureus Mu50
  MIC ratio: 16
S. aureus Mu50; [6]
  MIC: 16 mg/L (≈ 59.6 µM)
S. aureus Mu50; [5]
  MIC: 8 mg/L (≈ 29.8 µM)
S. aureus Mu50 NR1-1
  MIC: > 128 mg/L

## COc1cc(O)c2c(=O)c(OC)c(-c3ccc(O)c(OC)c3)oc2c1 [No. 66, 5-hydroxy-2-(4-hydroxy-3-methoxyphenyl)-3,7-dimethoxychromen-4-one]
[1]; [2]
  MIC: 128 mg/L (≈ 372 µM)
[1]; [3]
  MIC: 128 mg/L (≈ 372 µM)
[1]; [4]
  MIC: 128 mg/L (≈ 372 µM)
S. aureus Mu50
  MIC ratio: 4
S. aureus Mu50; [6]
  MIC: 32 mg/L (≈ 92.9 µM)
S. aureus Mu50; [5]
  MIC: 32 mg/L (≈ 92.9 µM)
S. aureus Mu50 NR1-1
  MIC: 128 mg/L (≈ 372 µM)

## O.O=c1c(O)c(-c2ccc(O)cc2)oc2cc(O)cc(O)c12 [No. 4, 3,4′,5,7-Tetrahydroxyflavone Hydrate]
[1]; [2]
  MIC: 16 mg/L
[1]; [3]
  MIC: 16 mg/L
[1]; [4]
  MIC: 16 mg/L
S. aureus Mu50
  MIC ratio: 2
S. aureus Mu50; [6]
  MIC: 8 mg/L
S. aureus Mu50; [5]
  MIC: 8 mg/L
S. aureus Mu50 NR1-1
  MIC: 16 mg/L

## COc1cc(O)c2c(=O)c(OC)c(-c3cc(O)c(OC)c(OC)c3)oc2c1 [No. 24, 5-hydroxy-2-(3-hydroxy-4,5-dimethoxyphenyl)-3,7-dimethoxychromen-4-one]
[1]; [2]
  MIC: 128 mg/L (≈ 342 µM)
[1]; [3]
  MIC: 128 mg/L (≈ 342 µM)
[1]; [4]
  MIC: 128 mg/L (≈ 342 µM)
S. aureus Mu50
  MIC ratio: 16
S. aureus Mu50; [6]
  MIC: 8 mg/L (≈ 21.4 µM)
S. aureus Mu50; [5]
  MIC: 8 mg/L (≈ 21.4 µM)
S. aureus Mu50 NR1-1
  MIC: 128 mg/L (≈ 342 µM)

## COc1ccc2c(=O)cc(-c3ccccc3)oc2c1 [No. 15, 7-Methoxyflavone]
[1]; [2]
  MIC: 128 mg/L (≈ 507 µM)
[1]; [3]
  MIC: 128 mg/L (≈ 507 µM)
[1]; [4]
  MIC: 128 mg/L (≈ 507 µM)
S. aureus Mu50
  MIC ratio: 4
S. aureus Mu50; [6]
  MIC: 32 mg/L (≈ 127 µM)
S. aureus Mu50; [5]
  MIC: 32 mg/L (≈ 127 µM)
S. aureus Mu50 NR1-1
  MIC: 128 mg/L (≈ 507 µM)

## COc1ccc(-c2coc3cc(OC(=O)N(C)C)cc(O)c3c2=O)cc1OC [compound 79]
[1]; read-out: MIC (mg/L) FDA209P
  MIC: > 128 mg/L
S. aureus Mu50; [7]
  MIC: > 128 mg/L

## CCn1cc(C(=O)O)c(=O)c2cc(F)c(N3CCNCC3)cc21 [Norfloxacin, norfloxacin, reference compound]
[1]; [3]
  MIC: 0.5 mg/L (≈ 1.57 µM)
[1]; [4]
  MIC: 0.5 mg/L (≈ 1.57 µM)
S. aureus Mu50
  MIC ratio: 0.008
S. aureus Mu50; [5]
  MIC: 64 mg/L (≈ 200 µM)
S. aureus Mu50 NR1-1
  MIC: 16 mg/L (≈ 50.1 µM)

## COc1ccc(-c2cc(=O)c3c(OC)c(OC)c(OC)cc3o2)cc1O [compound 39]
[1]; [2]
  MIC: 128 mg/L (≈ 357 µM)
S. aureus Mu50; [6]
  MIC: 128 mg/L (≈ 357 µM)

## COc1ccc(-c2coc3cc(OC)cc(OC)c3c2=O)cc1 [compound 76]
[1]; [2]
  MIC: > 128 mg/L
S. aureus Mu50; [6]
  MIC: > 128 mg/L

## O=c1c(-c2ccc(OC3OC(CO)C(O)C(O)C3O)cc2)coc2cc(O)cc(O)c12 (centres unmarked) [compound 81]
[1]; Example 1, Tables 1 to 10
  MIC (mg/L) FDA209P: >128 mg/L
S. aureus Mu50
  MIC (mg/L) Mu50: >128 mg/L

## O=c1c(O)c(-c2ccc(O)c(O)c2)oc2c(O)c(O)cc(O)c12 [compound 37]
[1]; [2]
  MIC: 128 mg/L (≈ 402 µM)
S. aureus Mu50
  MIC (mg/L) Mu50: 64 mg/L (≈ 201 µM)
S. aureus Mu50; [6]
  MIC: 62 mg/L (≈ 195 µM)

## COc1ccc(-c2coc3cc(OC(=O)N(C)C)cc(OC)c3c2=O)cc1OC [compound 80]
[1]; read-out: MIC (mg/L) FDA209P
  MIC: > 128 mg/L
S. aureus Mu50; [7]
  MIC: > 128 mg/L

## COc1ccc(-c2oc3cc4c(c(OC)c3c(=O)c2OC)OCO4)cc1 [compound 32]
[1]; Example 1, Tables 1 to 10
  MIC (mg/L) FDA209P: >128 mg/L
S. aureus Mu50
  MIC (mg/L) Mu50: >128 mg/L

## CC1(CO)C=Cc2c(cc3occ(-c4ccc(O)cc4)c(=O)c3c2O)O1 (centres unmarked) [compound 122]
[1]; [2]
  MIC: > 128 mg/L
S. aureus Mu50; [6]
  MIC: > 128 mg/L

## O=C(O)C1OC(Oc2cc(O)c3c(=O)cc(-c4ccc(O)c(O)c4)oc3c2)C(O)C(O)C1O (centres unmarked) [compound 62]
[1]; Example 1, Tables 1 to 10
  MIC (mg/L) FDA209P: >128 mg/L
S. aureus Mu50
  MIC (mg/L) Mu50: >128 mg/L

## COc1cc(OC)c2c(=O)cc(-c3ccccc3)oc2c1C [compound 21]
[1]; Example 1, Tables 1 to 10
  MIC (mg/L) FDA209P: >128 mg/L
S. aureus Mu50
  MIC (mg/L) Mu50: >128 mg/L

## Cc1c(-c2ccccc2)oc2c(C(=O)OCCN3CCCCC3)cccc2c1=O [compound 55]
[1]; [2]
  MIC: 128 mg/L (≈ 327 µM)
S. aureus Mu50; [6]
  MIC: > 128 mg/L

## O=c1cc(-c2ccc(O)c(-c3c(O)cc(O)c4c(=O)cc(-c5ccc(O)cc5)oc34)c2)oc2cc(O)cc(O)c12 [compound 45]
[1]; [2]
  MIC: > 128 mg/L
S. aureus Mu50; [6]
  MIC: > 128 mg/L

## COc1ccc(-c2c(C(F)(F)F)oc3cc(O)cc(O)c3c2=O)cc1OC [compound 118]
[1]; [2]
  MIC: 128 mg/L (≈ 335 µM)
S. aureus Mu50; [6]
  MIC: 64 mg/L (≈ 167 µM)

## COc1ccc2oc(-c3ccccc3)cc(=O)c2c1 [compound 16]
[1]; Example 1, Tables 1 to 10
  MIC (mg/L) FDA209P: 128 mg/L (≈ 507 µM)
S. aureus Mu50
  MIC (mg/L) Mu50: 128 mg/L (≈ 507 µM)
